The source of these data is patent US20240287071A1, “CLASS OF IMIDAZOLIDINOPYRIMIDONE COMPOUNDS AND USE THEREOF IN TREATMENT OF HSCLPP-MEDIATED DISEASES” (SICHUAN UNIVERSITY, priority 2021, published 2024).

Each structure is given as a SMILES string.

The target of this assay is HsClpP (Homo sapiens, UniProt Q16740). Description: HsClpP enzyme hydrolysis of short peptide substrate AC-WLA-AMC. The conditions noted are these: promoting hydrolysis of short peptide substrate by HsClpP, relative to blank control.
Sequence of HsClpP (Q16740 57-277): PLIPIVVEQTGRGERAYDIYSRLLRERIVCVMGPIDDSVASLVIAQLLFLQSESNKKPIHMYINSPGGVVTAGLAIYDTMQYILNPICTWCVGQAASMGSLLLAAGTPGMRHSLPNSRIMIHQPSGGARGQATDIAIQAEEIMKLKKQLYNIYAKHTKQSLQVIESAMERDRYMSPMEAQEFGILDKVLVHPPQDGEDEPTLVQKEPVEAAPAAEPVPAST

Procedure: This study evaluated the regulatory activity of the compounds on HsClpP by examining the hydrolysis effects of HsClpP protein on the AC-WLA-AMC substrate . […] The small molecules and the HsClpP protein solution were added to a flat-bottomed black 96-well plate, with three replicate wells for each group. […] DMSO was used as a negative control instead of small molecules. The multiple of readings at different concentrations against the readings of DMSO group was recorded as an index for evaluation of hydrolysis activity. . . . GraphPad Prism was used to plot the obtained multiple values and calculate the EC50 values.

Turning to `O=c1nc2n(c3c1CN(Cc1ccccc1)CC3(F)F)CCN2Cc1ccc(F)c(Br)c1` [Compound 49, 7-Benzyl-9,9-difluoro-3-(3-bromo-4-fluorobenzyl)-2,3,6,7,8,9-hexahydroimidazo[1,2-a]pyrido[3,4-e]pyrimidin-5(1H)-one], the “Regulatory efficacy 1 μM” value is “+ +” and the “Regulatory efficacy 10 μM” value is “+ +”.
For `N#Cc1cccc(CN2Cc3c(n4c(nc3=O)N(Cc3ccc(F)c(F)c3)CC4)C(F)(F)C2)c1` [Compound 50, 3-((3-(3,4-difluorobenzyl)-9,9-difluoro-5-oxo-2,3,6,7,8,9-hexahydroimidazo[1,2-a]pyrido[3,4-e]pyrimidin-7(6H)-yl)methyl)benzonitrile], the “Regulatory efficacy 1 μM” value was “+ +” and the “Regulatory efficacy 10 μM” value was “+ +”.
With `COC(=O)c1cccc(CN2CCn3c2nc(=O)c2c3C(F)(F)CN(Cc3cccc(C#N)c3)C2)c1` [Compound 51], the “Regulatory efficacy 1 μM” value was “+ +” and the “Regulatory efficacy 10 μM” value was “+ +”.
In the case of `N#Cc1cccc(CN2Cc3c(n4c(nc3=O)N(Cc3ccccc3)CC4)C(F)(F)C2)c1` [Compound 52, 3-((3-benzyl-9,9-difluoro-5-oxo-2,3,6,7,8,9-hexahydroimidazo[1,2-a]pyrido[3,4-e]pyrimidin-7(6H)-yl)methyl)benzonitrile], the “Regulatory efficacy 1 μM” value was “+ +” and the “Regulatory efficacy 10 μM” value is on record as “+ +”.
With `N#Cc1cccc(CN2Cc3c(n4c(nc3=O)N(Cc3cccc(F)c3)CC4)C(F)(F)C2)c1` [Compound 53, 3-((3-(3-fluorobenzyl)-9,9-difluoro-5-oxo-2,3,6,7,8,9-hexahydroimidazo[1,2-a]pyrido[3,4-e]pyrimidin-7(6H)-yl)methyl)benzonitrile], the “Regulatory efficacy 1 μM” value is “+ +” and the “Regulatory efficacy 10 μM” value was “+ +”.
Consider `N#Cc1cccc(CN2Cc3c(n4c(nc3=O)N(Cc3ccc(F)c(Br)c3)CC4)C(F)(F)C2)c1` [Compound 54, 3-((3-(3-bromo-4-fluorobenzyl)-9,9-difluoro-5-oxo-2,3,6,7,8,9-hexahydroimidazo[1,2-a]pyrido[3,4-e]pyrimidin-7(6H)-yl)methyl)benzonitrile], for which the “Regulatory efficacy 1 μM” value is recorded as “+ +” and the “Regulatory efficacy 10 μM” value is “+ +”.
For the compound `CC(C)CCN1CCn2c1nc(=O)c1c2C(F)(F)CN(Cc2cccc(C#N)c2)C1` [Compound 55, 3-((9,9-difluoro-3-isopentyl-5-oxo-2,3,6,7,8,9-hexahydroimidazo[1,2-a]pyrido[3,4-e]pyrimidin-7(6H)-yl)methyl)benzonitrile], the “Regulatory efficacy 1 μM” value is “+ +” and the “Regulatory efficacy 10 μM” value is “+ +”.
In the case of `Cc1ccc(CN2CCn3c2nc(=O)c2c3C(F)(F)CN(Cc3cccc(C#N)c3)C2)cc1` [Compound 56, 3-((9,9-difluoro-3-(4-methylbenzyl)-5-oxo-2,3,6,7,8,9-hexahydroimidazo[1,2-a]pyrido[3,4-e]pyrimidin-7(6H)-yl)methyl)benzonitrile], the “Regulatory efficacy 1 μM” value is “+ +” and the “Regulatory efficacy 10 μM” value was “+ +”.
With `N#Cc1cccc(CN2Cc3c(n4c(nc3=O)N(Cc3ccc(Cl)c(Cl)c3)CC4)C(F)(F)C2)c1` [Compound 57, 3-((9,9-difluoro-3-(3,4-dichlorobenzyl)-5-oxo-2,3,6,7,8,9-hexahydroimidazo[1,2-a]pyrido[3,4-e]pyrimidin-7(6H)-yl)methyl)benzonitrile], the “Regulatory efficacy 1 μM” value is “+ +” and the “Regulatory efficacy 10 μM” value is given as “+ +”.
Turning to `Cc1cccc(CN2CCn3c2nc(=O)c2c3C(F)(F)CN(Cc3cccc(C#N)c3)C2)c1` [Compound 58, 3-((9,9-difluoro-3-(3-methylbenzyl)-5-oxo-2,3,6,7,8,9-hexahydroimidazo[1,2-a]pyrido[3,4-e]pyrimidin-7(6H)-yl)methyl)benzonitrile], the “Regulatory efficacy 1 μM” value is given as “+ +” and the “Regulatory efficacy 10 μM” value was “+ +”.
Regarding `O=c1nc2n(c3c1CN(Cc1ccccc1)CC3)CCN2Cc1cccc(Br)c1` [Compound 59, 7-Benzyl-3-(3-bromobenzyl)-2,3,6,7,8,9-hexahydroimidazo[1,2-a]pyrido[3,4-e]pyrimidin-5(1H)-one], the “Regulatory efficacy 1 μM” value is given as “+ +” and the “Regulatory efficacy 10 μM” value is given as “+ +”.
Consider `O=c1nc2n(c3c1CN(Cc1ccccc1)CC3)CCN2Cc1ccccc1Cl` [Compound 61, 7-Benzyl-3-(2-chlorobenzyl)-2,3,6,7,8,9-hexahydroimidazo[1,2-a]pyrido[3,4-e]pyrimidin-5(1H)-one], for which the “Regulatory efficacy 1 μM” value was “+ +” and the “Regulatory efficacy 10 μM” value is reported as “+ +”.
With `O=c1nc2n(c3c1CN(Cc1ccccc1)CC3)CCN2Cc1ccccc1F` [Compound 62, 7-Benzyl-3-(2-fluorobenzyl)-2,3,6,7,8,9-hexahydroimidazo[1,2-a]pyrido[3,4-e]pyrimidin-5(1H)-one], the “Regulatory efficacy 1 μM” value is given as “+ +” and the “Regulatory efficacy 10 μM” value was “+ +”.
With `O=c1nc2n(c3c1CN(Cc1ccccc1)CC3)CCN2Cc1cccc(F)c1` [Compound 63, 7-Benzyl-3-(3-fluorobenzyl)-2,3,6,7,8,9-hexahydroimidazo[1,2-a]pyrido[3,4-e]pyrimidin-5(1H)-one], the “Regulatory efficacy 1 μM” value is reported as “+ (+ indicating that the increased efficacy is less than 50% of the blank control group)” and the “Regulatory efficacy 10 μM” value was “+ +”.
With `COc1cccc(CN2CCn3c2nc(=O)c2c3CCN(Cc3ccccc3)C2)c1` [Compound 64, 7-Benzyl-3-(3-methoxybenzyl)-2,3,6,7,8,9-hexahydroimidazo[1,2-a]pyrido[3,4-e]pyrimidin-5(1H)-one], the “Regulatory efficacy 1 μM” value is “+ +” and the “Regulatory efficacy 10 μM” value is recorded as “+ +”.
Regarding `CCN1CCn2c1nc(=O)c1c2C(F)(F)CN(Cc2ccccc2)C1` [Compound 65, 7-Benzyl-3-ethyl-9,9-difluoro-2,3,6,7,8,9-hexahydroimidazo[1,2-a]pyrido[3,4-e]pyrimidin-5(1H)-one], the “Regulatory efficacy 1 μM” value is recorded as “+ (+ indicating that the increased efficacy is less than 50% of the blank control group)” and the “Regulatory efficacy 10 μM” value was “+ +”.
Turning to `O=c1nc2n(c3c1CN(Cc1ccccc1)CC3(F)F)CCN2CC1CCCCC1` [Compound 66, 7-Benzyl-3-(cyclohexylmethyl)-9,9-difluoro-2,3,6,7,8,9-hexahydroimidazo[1,2-a]pyrido[3,4-e]pyri midin-5(1H)-one], the “Regulatory efficacy 1 μM” value is listed as “+ +” and the “Regulatory efficacy 10 μM” value is “+ +”.
In the case of `O=c1nc2n(c3c1CN(Cc1ccccc1)CC3(F)F)CCN2c1ccccc1` [Compound 67, 7-Benzyl-9,9-difluoro-3-phenyl-2,3,6,7,8,9-hexahydroimidazo[1,2-a]pyrido[3,4-e]pyrimidin-5(1H)-one], the “Regulatory efficacy 1 μM” value is “+ +” and the “Regulatory efficacy 10 μM” value is “+ +”.
Turning to `O=c1nc2n(c3c1CN(Cc1ccccc1)CC3(F)F)CCN2Cc1ccccc1` [Compound 68, 3,7-Dibenzyl-9,9-difluoro-2,3,6,7,8,9-hexahydroimidazo[1,2-a]pyrido[3,4-e]pyrimidin-5(1H)-one], the “Regulatory efficacy 1 μM” value is on record as “+ +” and the “Regulatory efficacy 10 μM” value is “+ +”.
In the case of `O=c1nc2n(c3c1CN(Cc1ccccc1)CC3(F)F)CCN2CCc1ccccc1` [Compound 69, 7-Benzyl-9,9-difluoro-3-phenylethyl-2,3,6,7,8,9-hexahydroimidazo[1,2-a]pyrido[3,4-e]pyrimidin-5(1H)-one], the “Regulatory efficacy 1 μM” value is given as “+ +” and the “Regulatory efficacy 10 μM” value was “+ +”.
`O=c1nc2n(c3c1CN(Cc1ccccc1)CC3(F)F)CCN2Cc1ccco1` [Compound 70, 7-Benzyl-9,9-difluoro-3-(furan-2-ylmethyl)-2,3,6,7,8,9-hexahydroimidazo [1,2-a]pyrido[3,4-e]pyrimidin-5(1H)-one]: the “Regulatory efficacy 1 μM” value was “+ (+ indicating that the increased efficacy is less than 50% of the blank control group)” and the “Regulatory efficacy 10 μM” value is on record as “+ +”.
Consider `Cc1ccc(CN2CCn3c2nc(=O)c2c3C(F)(F)CN(Cc3ccccc3)C2)cc1` [Compound 72, 7-Benzyl-9,9-difluoro-3-(4-methylbenzyl)-2,3,6,7,8,9-hexahydroimidazo[1,2-a]pyrido[3,4-e]pyrimid in-5(1H)-one], for which the “Regulatory efficacy 1 μM” value is listed as “+ +” and the “Regulatory efficacy 10 μM” value is listed as “+ +”.
As for `O=c1nc2n(c3c1CN(Cc1ccccc1)CC3(F)F)CCN2Cc1ccc(C(F)(F)F)cc1` [Compound 73, 7-Benzyl-9,9-difluoro-3-(4-(trifluoromethyl)benzyl)-2,3,6,7,8,9-hexahydroimidazo[1,2-a]pyrido[3,4-e]pyrimidin-5(1H)-one], the “Regulatory efficacy 1 μM” value is recorded as “+ +” and the “Regulatory efficacy 10 μM” value was “+ +”.
As to `COc1ccccc1CN1CCn2c1nc(=O)c1c2C(F)(F)CN(Cc2ccccc2)C1` [Compound 74, 7-Benzyl-9,9-difluoro-3-(2-methoxybenzyl)-2,3,6,7,8,9-hexahydroimidazo[1,2-a]pyrido[3,4-e]pyrimidin-5(1H)-one], the “Regulatory efficacy 1 μM” value is “+ +” and the “Regulatory efficacy 10 μM” value is given as “+ +”.
`CS(=O)(=O)c1ccc(CN2CCn3c2nc(=O)c2c3C(F)(F)CN(Cc3ccccc3)C2)cc1` [Compound 75, 7-Benzyl-9,9-difluoro-3-(4-(methylsulfonyl)benzyl)-2,3,6,7,8,9-hexahydroimidazo[1,2-a]pyrido[3,4-e]pyrimidin-5(1H)-one]: the “Regulatory efficacy 1 μM” value is recorded as “+ +” and the “Regulatory efficacy 10 μM” value is “+ +”.
Take `O=c1nc2n(c3c1CN(Cc1ccccc1)CC3(F)F)CCN2Cc1ccc(Cl)cc1` [Compound 77, 7-Benzyl-3-(4-chlorobenzyl)-9,9-difluoro-2,3,6,7,8,9-hexahydroimidazo[1,2-a]pyrido[3,4-e]pyrimidi n-5(1H)-one]: the “Regulatory efficacy 1 μM” value was “+ +” and the “Regulatory efficacy 10 μM” value is reported as “+ +”.
As for `O=c1nc2n(c3c1CN(Cc1ccccc1)CC3(F)F)CCN2Cc1ccc(Br)cc1` [Compound 78, 7-Benzyl-3-(4-bromobenzyl)-9,9-difluoro-2,3,6,7,8,9-hexahydroimidazo[1,2-a]pyrido[3,4-e]pyrimidin-5(1H)-one], the “Regulatory efficacy 1 μM” value is “+ +” and the “Regulatory efficacy 10 μM” value is “+ +”.
